Assay results taken from ChEMBL document CHEMBL1782017, “Synthesis and biological evaluation of new flavonoid fatty acid esters with anti-adipogenic and enhancing glucose consumption activities” (2011).

Tested on: 3T3-L1
Experiment: Increase in glucose consumption in differentiated mouse 3T3L1 cells in low-glucose medium at 50 ug/ml after 24 hrs by glucose-oxidase method relative to control
Type: functional
Details: not given

Row | SMILES | fold change (FC)
1 | CCCCCCCC/C=C\CCCCCCCC(=O)Oc1ccc2c(c1)O/C(=C\c1ccc(OC)cc1)C2=O | 2.39

Tested on: 3T3-L1
Experiment: Glucose consumption in differentiated mouse 3T3L1 cells in low-glucose medium at 100 ug/ml after 24 hrs by glucose-oxidase method (Rvb =2.35 +/- 0.19 mmol/L)
Type: functional
Details: not given

Row | SMILES | Activity [mmol/L]
2 | CCCCC/C=C\C=C\CCCCCCCCC(=O)Oc1ccc2c(c1)C(=O)/C(=C/c1cccc([N+](=O)[O-])c1)O2 | 4.29
3 | C=CCCCCCCCCC(=O)Oc1ccc2c(c1)C(=O)/C(=C/c1cccc(Cl)c1)O2 | 3.56
4 | CCCCCCCC/C=C\CCCCCCCC(=O)Oc1ccc2c(c1)O/C(=C\c1ccc(OC)cc1)C2=O | 5.61
5 | CCCCCCCC/C=C\CCCCCCCC(=O)Oc1ccc2c(c1)C(=O)/C(=C/c1cccc([N+](=O)[O-])c1)O2 | 3.47
6 | CCCCC/C=C\C=C\CCCCCCCCC(=O)Oc1ccc2c(c1)C(=O)/C(=C/c1ccc(OC)c(OC)c1)O2 | 3.85
7 | CCCCCCCC/C=C\CCCCCCCC(=O)Oc1ccc2c(=O)c(Cc3ccc(OC)cc3)coc2c1 | 3.38
8 | C=CCCCCCCCCC(=O)Oc1ccc2c(c1)C(=O)/C(=C/c1ccc(F)cc1)O2 | 5.45
9 | CCCCCCCC/C=C\CCCCCCCC(=O)Oc1ccc2c(c1)C(=O)/C(=C/c1ccc(F)cc1)O2 | 4.35
10 | CCc1ccc(CCOc2ccc(CC3SC(=O)NC3=O)cc2)nc1 (centres undefined) [PIOGLITAZONE] | 6.75
11 | CCCCCCCC/C=C\CCCCCCCC(=O)Oc1ccc2c(c1)C(=O)/C(=C/c1ccc(OC)cc1)O2 | 5.05

Tested on: 3T3-L1
Experiment: Increase in glucose consumption in differentiated mouse 3T3L1 cells in low-glucose medium at 100 ug/ml after 24 hrs by glucose-oxidase method relative to control
Type: functional
Details: not given

Row | SMILES | fold change (FC)
12 | CCCCCCCC/C=C\CCCCCCCC(=O)Oc1ccc2c(c1)O/C(=C\c1ccc(OC)cc1)C2=O | 2.39

Tested on: 3T3-L1
Experiment: Antiproliferative activity against mouse 3T3L1 cells after 48 hrs by MTT assay
Type: functional
Parameters: concentration or dose not given beside the values
Details: not given

Row | SMILES | Activity [%]
13 | CCCCC/C=C\C=C\CCCCCCCCC(=O)Oc1ccc2c(c1)C(=O)/C(=C/c1cccc([N+](=O)[O-])c1)O2 | -12.06
14 | C=CCCCCCCCCC(=O)Oc1ccc2c(c1)C(=O)/C(=C/c1cccc(Cl)c1)O2 | 57.4
15 | CCCCCCCC/C=C\CCCCCCCC(=O)Oc1ccc2c(c1)O/C(=C\c1ccc(OC)cc1)C2=O | 22.18
16 | CCCCCCCC/C=C\CCCCCCCC(=O)Oc1ccc2c(c1)C(=O)/C(=C/c1cccc([N+](=O)[O-])c1)O2 | 17.55
17 | CCCCC/C=C\C=C\CCCCCCCCC(=O)Oc1ccc2c(c1)C(=O)/C(=C/c1ccc(OC)c(OC)c1)O2 | 20.72
18 | CCCCCCCC/C=C\CCCCCCCC(=O)Oc1ccc2c(=O)c(Cc3ccc(OC)cc3)coc2c1 | 1.88
19 | C=CCCCCCCCCC(=O)Oc1ccc2c(c1)C(=O)/C(=C/c1ccc(F)cc1)O2 | 16.67
20 | CCCCCCCC/C=C\CCCCCCCC(=O)Oc1ccc2c(c1)C(=O)/C(=C/c1ccc(F)cc1)O2 | 22.57
21 | CCCCCCCC/C=C\CCCCCCCC(=O)Oc1ccc2c(c1)C(=O)/C(=C/c1ccc(OC)cc1)O2 | 17.69

Tested on: 3T3-L1
Experiment: Inhibition of adipogenesis in mouse 3T3L1 cells at 100 umol/L after 8 days by Oil red O-staining
Type: functional
Details: 3T3-L1, 192 h

Row | SMILES | inhibition at 100 µM [%]
22 | CCCCC/C=C\C=C\CCCCCCCCC(=O)Oc1ccc2c(c1)C(=O)/C(=C/c1cccc([N+](=O)[O-])c1)O2 | 15.1
23 | C=CCCCCCCCCC(=O)Oc1ccc2c(c1)C(=O)/C(=C/c1cccc(Cl)c1)O2 | 28.7
24 | CCCCCCCC/C=C\CCCCCCCC(=O)Oc1ccc2c(c1)O/C(=C\c1ccc(OC)cc1)C2=O | 14.3
25 | CCCCCCCC/C=C\CCCCCCCC(=O)Oc1ccc2c(c1)C(=O)/C(=C/c1cccc([N+](=O)[O-])c1)O2 | 15.6
26 | CCCCC/C=C\C=C\CCCCCCCCC(=O)Oc1ccc2c(c1)C(=O)/C(=C/c1ccc(OC)c(OC)c1)O2 | 1.88
27 | CCCCCCCC/C=C\CCCCCCCC(=O)Oc1ccc2c(=O)c(Cc3ccc(OC)cc3)coc2c1 | 47.5
28 | C=CCCCCCCCCC(=O)Oc1ccc2c(c1)C(=O)/C(=C/c1ccc(F)cc1)O2 | 25.4
29 | CCCCCCCC/C=C\CCCCCCCC(=O)Oc1ccc2c(c1)C(=O)/C(=C/c1ccc(F)cc1)O2 | 9.38
30 | CCCCCCCC/C=C\CCCCCCCC(=O)Oc1ccc2c(c1)C(=O)/C(=C/c1ccc(OC)cc1)O2 | 11.7

Tested on: 3T3-L1
Experiment: Increase in glucose consumption in differentiated mouse 3T3L1 cells in high-glucose medium at 100 ug/ml after 24 hrs by glucose-oxidase method relative to control
Type: functional
Details: not given

Row | SMILES | fold change (FC)
31 | CCCCCCCC/C=C\CCCCCCCC(=O)Oc1ccc2c(c1)O/C(=C\c1ccc(OC)cc1)C2=O | 2.39

Tested on: 3T3-L1
Experiment: Glucose consumption in differentiated mouse 3T3L1 cells in low-glucose medium at 50 ug/ml after 24 hrs by glucose-oxidase method (Rvb =2.41 +/- 0.22 mmol/L)
Type: functional
Details: not given

Row | SMILES | Activity [mmol/L]
32 | CCCCC/C=C\C=C\CCCCCCCCC(=O)Oc1ccc2c(c1)C(=O)/C(=C/c1cccc([N+](=O)[O-])c1)O2 | 3.64
33 | C=CCCCCCCCCC(=O)Oc1ccc2c(c1)C(=O)/C(=C/c1cccc(Cl)c1)O2 | 2.88
34 | CCCCCCCC/C=C\CCCCCCCC(=O)Oc1ccc2c(c1)O/C(=C\c1ccc(OC)cc1)C2=O | 4.94
35 | CCCCCCCC/C=C\CCCCCCCC(=O)Oc1ccc2c(c1)C(=O)/C(=C/c1cccc([N+](=O)[O-])c1)O2 | 2.93
36 | CCCCC/C=C\C=C\CCCCCCCCC(=O)Oc1ccc2c(c1)C(=O)/C(=C/c1ccc(OC)c(OC)c1)O2 | 2.99
37 | CCCCCCCC/C=C\CCCCCCCC(=O)Oc1ccc2c(=O)c(Cc3ccc(OC)cc3)coc2c1 | 2.71
38 | C=CCCCCCCCCC(=O)Oc1ccc2c(c1)C(=O)/C(=C/c1ccc(F)cc1)O2 | 4.41
39 | CCCCCCCC/C=C\CCCCCCCC(=O)Oc1ccc2c(c1)C(=O)/C(=C/c1ccc(F)cc1)O2 | 3.81
40 | CCc1ccc(CCOc2ccc(CC3SC(=O)NC3=O)cc2)nc1 (centres undefined) [PIOGLITAZONE] | 5.51
41 | CCCCCCCC/C=C\CCCCCCCC(=O)Oc1ccc2c(c1)C(=O)/C(=C/c1ccc(OC)cc1)O2 | 4.48

Tested on: 3T3-L1
Experiment: Glucose consumption in differentiated mouse 3T3L1 cells in low-glucose medium after 24 hrs by glucose-oxidase method
Type: functional, cell-based
Details: not given

Row | SMILES | Activity
42 | CCCCC/C=C\C=C\CCCCCCCCC(=O)Oc1ccc2c(c1)C(=O)/C(=C/c1cccc([N+](=O)[O-])c1)O2 | Dose-dependent effect
43 | C=CCCCCCCCCC(=O)Oc1ccc2c(c1)C(=O)/C(=C/c1cccc(Cl)c1)O2 | Dose-dependent effect
44 | CCCCCCCC/C=C\CCCCCCCC(=O)Oc1ccc2c(c1)O/C(=C\c1ccc(OC)cc1)C2=O | Dose-dependent effect
45 | CCCCC/C=C\C=C\CCCCCCCCC(=O)Oc1ccc2c(c1)C(=O)/C(=C/c1ccc(OC)c(OC)c1)O2 | Dose-dependent effect
46 | CCCCCCCC/C=C\CCCCCCCC(=O)Oc1ccc2c(=O)c(Cc3ccc(OC)cc3)coc2c1 | Dose-dependent effect
47 | C=CCCCCCCCCC(=O)Oc1ccc2c(c1)C(=O)/C(=C/c1ccc(F)cc1)O2 | Dose-dependent effect
48 | CCCCCCCC/C=C\CCCCCCCC(=O)Oc1ccc2c(c1)C(=O)/C(=C/c1ccc(F)cc1)O2 | Dose-dependent effect
49 | CCc1ccc(CCOc2ccc(CC3SC(=O)NC3=O)cc2)nc1 (centres undefined) [PIOGLITAZONE] | Dose-dependent effect
50 | CCCCCCCC/C=C\CCCCCCCC(=O)Oc1ccc2c(c1)C(=O)/C(=C/c1ccc(OC)cc1)O2 | Dose-dependent effect

Tested on: 3T3-L1
Experiment: Glucose consumption in differentiated mouse 3T3L1 cells in high-glucose medium at 50 ug/ml after 24 hrs by glucose-oxidase method (Rvb =3.06 +/- 0.29 mmol/L)
Type: functional
Details: not given

Row | SMILES | Activity [mmol/L]
51 | CCCCC/C=C\C=C\CCCCCCCCC(=O)Oc1ccc2c(c1)C(=O)/C(=C/c1cccc([N+](=O)[O-])c1)O2 | 4.21
52 | C=CCCCCCCCCC(=O)Oc1ccc2c(c1)C(=O)/C(=C/c1cccc(Cl)c1)O2 | 3.86
53 | CCCCCCCC/C=C\CCCCCCCC(=O)Oc1ccc2c(c1)O/C(=C\c1ccc(OC)cc1)C2=O | 5.48
54 | CCCCCCCC/C=C\CCCCCCCC(=O)Oc1ccc2c(c1)C(=O)/C(=C/c1cccc([N+](=O)[O-])c1)O2 | 3.35
55 | CCCCC/C=C\C=C\CCCCCCCCC(=O)Oc1ccc2c(c1)C(=O)/C(=C/c1ccc(OC)c(OC)c1)O2 | 3.71
56 | CCCCCCCC/C=C\CCCCCCCC(=O)Oc1ccc2c(=O)c(Cc3ccc(OC)cc3)coc2c1 | 3.49
57 | C=CCCCCCCCCC(=O)Oc1ccc2c(c1)C(=O)/C(=C/c1ccc(F)cc1)O2 | 5.16
58 | CCCCCCCC/C=C\CCCCCCCC(=O)Oc1ccc2c(c1)C(=O)/C(=C/c1ccc(F)cc1)O2 | 4.07
59 | CCc1ccc(CCOc2ccc(CC3SC(=O)NC3=O)cc2)nc1 (centres undefined) [PIOGLITAZONE] | 7.36
60 | CCCCCCCC/C=C\CCCCCCCC(=O)Oc1ccc2c(c1)C(=O)/C(=C/c1ccc(OC)cc1)O2 | 4.91

Tested on: 3T3-L1
Experiment: Glucose consumption in differentiated mouse 3T3L1 cells in high-glucose medium at 100 ug/ml after 24 hrs by glucose-oxidase method (Rvb =3.12 +/- 0.32 mmol/L)
Type: functional
Details: not given

Row | SMILES | Activity [mmol/L]
61 | CCCCC/C=C\C=C\CCCCCCCCC(=O)Oc1ccc2c(c1)C(=O)/C(=C/c1cccc([N+](=O)[O-])c1)O2 | 4.95
62 | C=CCCCCCCCCC(=O)Oc1ccc2c(c1)C(=O)/C(=C/c1cccc(Cl)c1)O2 | 4.49
63 | CCCCCCCC/C=C\CCCCCCCC(=O)Oc1ccc2c(c1)O/C(=C\c1ccc(OC)cc1)C2=O | 6.05
64 | CCCCCCCC/C=C\CCCCCCCC(=O)Oc1ccc2c(c1)C(=O)/C(=C/c1cccc([N+](=O)[O-])c1)O2 | 3.96
65 | CCCCC/C=C\C=C\CCCCCCCCC(=O)Oc1ccc2c(c1)C(=O)/C(=C/c1ccc(OC)c(OC)c1)O2 | 5.08
66 | CCCCCCCC/C=C\CCCCCCCC(=O)Oc1ccc2c(=O)c(Cc3ccc(OC)cc3)coc2c1 | 4.23
67 | C=CCCCCCCCCC(=O)Oc1ccc2c(c1)C(=O)/C(=C/c1ccc(F)cc1)O2 | 5.85
68 | CCCCCCCC/C=C\CCCCCCCC(=O)Oc1ccc2c(c1)C(=O)/C(=C/c1ccc(F)cc1)O2 | 4.82
69 | CCc1ccc(CCOc2ccc(CC3SC(=O)NC3=O)cc2)nc1 (centres undefined) [PIOGLITAZONE] | 8.15
70 | CCCCCCCC/C=C\CCCCCCCC(=O)Oc1ccc2c(c1)C(=O)/C(=C/c1ccc(OC)cc1)O2 | 5.67

Tested on: 3T3-L1
Experiment: Glucose consumption in differentiated mouse 3T3L1 cells in high-glucose medium after 24 hrs by glucose-oxidase method
Type: functional, cell-based
Details: not given

Row | SMILES | Activity
71 | CCCCC/C=C\C=C\CCCCCCCCC(=O)Oc1ccc2c(c1)C(=O)/C(=C/c1cccc([N+](=O)[O-])c1)O2 | Dose-dependent effect
72 | C=CCCCCCCCCC(=O)Oc1ccc2c(c1)C(=O)/C(=C/c1cccc(Cl)c1)O2 | Dose-dependent effect
73 | CCCCCCCC/C=C\CCCCCCCC(=O)Oc1ccc2c(c1)O/C(=C\c1ccc(OC)cc1)C2=O | Dose-dependent effect
74 | CCCCC/C=C\C=C\CCCCCCCCC(=O)Oc1ccc2c(c1)C(=O)/C(=C/c1ccc(OC)c(OC)c1)O2 | Dose-dependent effect
75 | CCCCCCCC/C=C\CCCCCCCC(=O)Oc1ccc2c(=O)c(Cc3ccc(OC)cc3)coc2c1 | Dose-dependent effect
76 | C=CCCCCCCCCC(=O)Oc1ccc2c(c1)C(=O)/C(=C/c1ccc(F)cc1)O2 | Dose-dependent effect
77 | CCCCCCCC/C=C\CCCCCCCC(=O)Oc1ccc2c(c1)C(=O)/C(=C/c1ccc(F)cc1)O2 | Dose-dependent effect
78 | CCc1ccc(CCOc2ccc(CC3SC(=O)NC3=O)cc2)nc1 (centres undefined) [PIOGLITAZONE] | Dose-dependent effect
79 | CCCCCCCC/C=C\CCCCCCCC(=O)Oc1ccc2c(c1)C(=O)/C(=C/c1ccc(OC)cc1)O2 | Dose-dependent effect
